Source: patent US9023865B2, “Compounds that are ERK inhibitors” (Merck Sharp & Dohme Corp., priority 2011, dated 2015)
Structures can show the parent of a compound that is named as a salt. Where two headings read alike, the source gives them in different places.

Assays:
[1] = target: Active Mouse ERK2 (mERK2) (Mus musculus (Mouse), UniProt P63085); assay: Active Mouse ERK2 (mERK2) Activity Assay (IMAP-FP); format: biochemical
Procedure: Active Mouse ERK2 (mERK2) Activity Assay:
Activated ERK2 activity was determined in an IMAP-FP assay (Molecular Devices). […] Phosphorylation reactions were allowed to proceed for 45 minutes and were immediately quenched by the addition of 60 μL IMAP detection beads (1:1000 dilutions) in IMAP binding buffer (Molecular Devices) with 24 mM NaCl. Plates were read on EnVision reader after 60 minutes binding equilibration using Fluorescence Polarization protocol (Perkin Elmer).

[2] = target: Active Human ERK2 (hERK2) (Homo sapiens (Human), UniProt P28482); assay: Active Human ERK2 (hERK2) Activity Assay (IMAP-FP); format: biochemical; details: read-out: ERK 2 Human average IC50
Outline: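 Phosphorylation by activated human ERK2 (0.5 nM) at 30 μM ATP, peptide substrate 900 nM unlabeled with 80 nM labeled, proceeds 60 min. IMAP beads stop the reaction; after 60 min equilibration, product is measured by fluorescence polarization.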

[3] = phosphorylated active mERK2, 30 uM ATP, read-out: ERK 2 MAPK1 Mouse IC50
[4] = read-out: AERK2 IC50 (Active mouse ERK2 Activity Assay)
[5] = phosphorylated active hERK2, 30 μM ATP, average

Sequence of Active Mouse ERK2 (mERK2) (P63085 whole entry): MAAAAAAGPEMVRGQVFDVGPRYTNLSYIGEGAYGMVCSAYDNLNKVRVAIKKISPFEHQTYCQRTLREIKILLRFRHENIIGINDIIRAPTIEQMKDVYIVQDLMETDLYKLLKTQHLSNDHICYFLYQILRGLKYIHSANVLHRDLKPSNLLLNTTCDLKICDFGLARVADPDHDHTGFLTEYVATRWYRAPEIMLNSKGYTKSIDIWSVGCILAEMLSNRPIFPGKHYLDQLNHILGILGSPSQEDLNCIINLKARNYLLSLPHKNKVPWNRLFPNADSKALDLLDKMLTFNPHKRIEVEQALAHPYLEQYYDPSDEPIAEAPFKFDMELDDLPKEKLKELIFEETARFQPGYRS
Sequence of Active Human ERK2 (hERK2) (P28482 whole entry): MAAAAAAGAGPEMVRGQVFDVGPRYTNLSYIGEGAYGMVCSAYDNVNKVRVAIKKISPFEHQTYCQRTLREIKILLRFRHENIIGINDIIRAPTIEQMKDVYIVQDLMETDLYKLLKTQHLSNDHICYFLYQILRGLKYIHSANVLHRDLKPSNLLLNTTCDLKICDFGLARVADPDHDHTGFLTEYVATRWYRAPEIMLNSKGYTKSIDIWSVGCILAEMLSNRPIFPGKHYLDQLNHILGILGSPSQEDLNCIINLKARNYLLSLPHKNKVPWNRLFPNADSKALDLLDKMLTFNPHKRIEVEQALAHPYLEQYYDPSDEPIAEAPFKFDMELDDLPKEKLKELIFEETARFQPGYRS

| Compound | IC50 [1, 3] [pM] | IC50 [1, 4] [pM] | IC50 [2, 5] [pM] | IC50 [2] [pM] |
| --- | --- | --- | --- | --- |
| Cc1cc(-c2n[nH]c3cc(NC(=O)NC4CCCNC4)ncc23)ccn1 (stereo not drawn) [Example 1, 3-({[3-(2-methylpyridin-4-yl)-1H-pyrazolo[4,3-c]pyridin-6-yl]carbamoyl}amino)piperidinium trifluoroacetate] | 3130 | – | – | – |
| Cc1cc(-c2n[nH]c3cc(NC(=O)N[C@H](C)c4ccccc4)ncc23)ccn1 [Example 6, 1-[3-(2-methylpyridin-4-yl)-1H-pyrazolo[4,3-c]pyridin-6-yl]-3-[(1R)-1-phenylethyl]urea] | 152 | 100 to 1200 | 204 | – |
| Cc1cc(-c2n[nH]c3cc(NC(=O)N[C@@H](c4ccccc4)C(F)(F)F)ncc23)ccn1 [Example 16, 1-[3-(2-methylpyridin-4-yl)-1H-pyrazolo[4,3-c]pyridin-6-yl]-3-[(1S)-2,2,2-trifluoro-1-phenylethyl]urea] | 3780 | – | – | – |
| Cc1cc(-c2n[nH]c3cc(NC(=O)NC(CO)c4ccccc4)ncc23)ccn1 (stereo not drawn) [Example 10, 1-(2-hydroxy-1-phenylethyl)-3-[3-(2-methylpyridin-4-yl)-1H-pyrazolo[4,3-c]pyridin-6-yl]urea] | 215 | 100 to 1200 | – | – |
| COc1cccc(F)c1CN1CCCC(NC(=O)Nc2cc3[nH]nc(-c4ccnc(C)c4)c3cn2)C1 (stereo not drawn) [Example 4, 1-[1-(2-fluoro-6-methoxybenzyl)-piperidin-3-yl]-3-[3-(2-methylpyridin-4-yl)-1H-pyrazolo[4,3-c]pyridin-6-yl]urea] | 1120 | 100 to 1200 | – | – |
| Cc1cc(-c2n[nH]c3cc(NC(=O)NCCc4ccccc4)ncc23)ccn1 [Example 5, 1-[3-(2-methylpyridin-4-yl)-1H-pyrazolo[4,3-c]pyridin-6-yl]-3-(2-phenylethyl)urea] | 502 | 100 to 1200 | – | – |
| Cc1cc(-c2n[nH]c3cc(NC(=O)NCc4ccc(Cl)c(Cl)c4)ncc23)ccn1 [Example 8, 1-(3,4-dichlorobenzyl)-3-[3-(2-methylpyridin-4-yl)-1H-pyrazolo[4,3-c]pyridin-6-yl]urea] | 516 | 100 to 1200 | – | – |
| Cc1cc(-c2n[nH]c3cc(NC(=O)NCc4nnc(C)o4)ncc23)ccn1 [Example 13] | 10200 | – | – | – |
| Cc1cc(-c2n[nH]c3cc(NC(=O)N[C@@H](C)c4ccc(F)cc4)ncc23)ccn1 [Example 11, 1-[(1S)-1-(4-fluorophenyl)ethyl]-3-[3-(2-methylpyridin-4-yl)-1H-pyrazolo[4,3-c]pyridin-6-yl]urea] | 152 | 100 to 1200 | 342 | – |
| Cc1cc(-c2n[nH]c3cc(NC(=O)N[C@H](C)c4ccc(Cl)cc4)ncc23)ccn1 [Example 19, 1-[(1R)-1-(4-chlorophenyl)ethyl]-3-[3-(2-methylpyridin-4-yl)-1H-pyrazolo[4,3-c]pyridin-6-yl]urea] | 296 | 100 to 1200 | 556 | – |
| Cc1cc(-c2n[nH]c3cc(NC(=O)N[C@@H](C)c4ccccc4)ncc23)ccn1 [Example 7, 1-[3-(2-methylpyridin-4-yl)-1H-pyrazolo[4,3-c]pyridin-6-yl]-3-[(1S)-1-phenylethyl]urea] | 38300 | – | – | – |
| COc1cccc(F)c1CN1CCC[C@H](NC(=O)Nc2cc3[nH]nc(-c4ccnc(C)c4)c3cn2)C1 [Example 3, 1-[(3S)-1-(2-fluoro-6-methoxybenzyl)-piperidin-3-yl]-3-[3-(2-methylpyridin-4-yl)-1H-pyrazolo[4,3-c]pyridin-6-yl]urea] | 36600 | – | – | – |
| Cc1cc(-c2n[nH]c3cc(NC(=O)N[C@H](CO)c4ccccc4)ncc23)ccn1 [Example 15, 1-[(1S)-2-hydroxy-1-phenylethyl]-3-[3-(2-methylpyridin-4-yl)-1H-pyrazolo[4,3-c]pyridin-6-yl]urea] | – | 100 to 1200 | 392 | – |
| Cc1cc(-c2n[nH]c3cc(NC(=O)NCc4ccccc4)ncc23)ccn1 [Example 9] | 222 | 100 to 1200 | – | 851 |
| Cc1cc(-c2n[nH]c3cc(NC(=O)N[C@@H](CO)c4ccccc4)ncc23)ccn1 [Example 17, 1-[(1R)-2-hydroxy-1-phenylethyl]-3-[3-(2-methylpyridin-4-yl)-1H-pyrazolo[4,3-c]pyridin-6-yl]urea] | 108000 | – | – | – |
| COc1cccc(F)c1CN1CCC[C@@H](NC(=O)Nc2cc3[nH]nc(-c4ccnc(C)c4)c3cn2)C1 [Example 2, 1-[(3R)-1-(2-fluoro-6-methoxybenzyl)-piperidin-3-yl]-3-[3-(2-methylpyridin-4-yl)-1H-pyrazolo[4,3-c]pyridin-6-yl]urea] | 152 | 100 to 1200 | 286 | – |
| Cc1cc(-c2n[nH]c3cc(NC(=O)NCc4cccnc4)ncc23)ccn1 [Example 14, 1-[3-(2-methylpyridin-4-yl)-1H-pyrazolo[4,3-c]pyridin-6-yl]-3-(pyridin-3-ylmethyl)urea] | 1160 | 100 to 1200 | – | – |
| Cc1cc(-c2n[nH]c3cc(NC(=O)N[C@H](c4ccccc4)C(F)(F)F)ncc23)ccn1 [Example 18, 1-[3-(2-methylpyridin-4-yl)-1H-pyrazolo[4,3-c]pyridin-6-yl]-3-[(1R)-2,2,2-trifluoro-1-phenylethyl]urea] | 9460 | – | – | – |

Continued, in another order:

| IC50 [1, 3] [pM] | IC50 [1, 4] [pM] | IC50 [2, 5] [pM] | Compound | IC50 [2] [pM] |
| --- | --- | --- | --- | --- |
| 457 | 100 to 1200 | 513 | Cc1cc(-c2n[nH]c3cc(NC(=O)NCc4ccc(Cl)cc4)ncc23)ccn1 [Example 26, 1-(4-chlorobenzyl)-3-[3-(2-methylpyridin-4-yl)-1H-pyrazolo[4,3-c]pyridin-6-yl]urea] | – |
| 537 | 100 to 1200 | – | C[C@@H](NC(=O)Nc1cc2[nH]nc(C3=CCOCC3)c2cn1)c1ccccc1 [Example 20, 1-[3-(3,6-dihydro-2H-pyran-4-yl)-1H-pyrazolo[4,3-c]pyridin-6-yl]-3-[(1R)-1-phenylethyl]urea] | – |
| 2230 | – | 2530 | COCCCc1n[nH]c2cc(NC(=O)N[C@H](C)c3ccccc3)ncc12 [Example 21, (R)-1-(3-(3-methoxypropyl)-1H-pyrazolo[4,3-c]pyridin-6-yl)-3-(1-phenylethyl)urea] | – |
| 919 | 100 to 1200 | 1610 | CCCc1n[nH]c2cc(NC(=O)N[C@H](C)c3ccccc3)ncc12 [Example 22, (R)-1-(1-phenylethyl)-3-(3-propyl-1H-pyrazolo[4,3-c]pyridin-6-yl)urea] | – |
| – | 100 to 1200 | 1960 | C[C@@H](NC(=O)Nc1cc2[nH]nc(C3CC3)c2cn1)c1ccccc1 [Example 25, 1-(3-cyclopropyl-1H-pyrazolo[4,3-c]pyridin-6-yl)-3-[(1R)-1-phenylethyl]urea] | – |
| 682000 | – | 836000 | C[C@@H](NC(=O)Nc1cc2[nH]ncc2cn1)c1ccc(F)cc1 [Example 24, 1-[(1R)-1-(4-fluorophenyl)ethyl]-3-(1H-pyrazolo[4,3-c]pyridin-6-yl)urea] | – |
| 2220 | – | 2000 | Cc1cc(-c2n[nH]c3cc(NC(N)=O)ncc23)ccn1 [Example 23, 1-(3-(2-methylpyridin-4-yl)-1H-pyrazolo[4,3-c]pyridin-6-yl)urea] | – |
| – | – | 50000 | CNC(c1n[nH]c2cc(NC(=O)N[C@H](C)c3ccccc3)ncc12)C(F)(F)F (stereo partly drawn) [Example 564, 1-((R)-1-phenylethyl)-3-(3-(2,2,2-trifluoro-1-(methylamino)ethyl)-1H-pyrazolo[4,3-c]pyridin-6-yl)urea] | – |
| – | – | 509 | Cc1cc(-c2n[nH]c3c(F)c(NC(=O)N[C@H](C)c4ccc(Cl)cc4)ncc23)ccn1 [Example 534] | – |
| – | – | 594 | Cc1cc(-c2n[nH]c3cc(NC(=O)NCc4cnsc4)ncc23)ccn1 [Example 423] | – |
| – | – | 751 | COc1ncc(-c2n[nH]c3cc(NC(=O)N[C@@H]4CCCOc5ccccc54)ncc23)cn1 [Example 312] | – |
